Source: patent US7462600B2, “Macrolides” (Pfizer Inc, priority 2004, dated 2008)
≈ marks a conversion by molar mass, not a printed value.

Legend:
Format in all cases: cell-based
[1] = test system: Streptococcus pyogenes 1079; experiment: MIC, microtiter broth dilution (NCCLS M100-S14), S. pyogenes 1079 (ermB); conditions: S. pyogenes 1079 (ermB)
Outline: (§1)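 Microtiter broth dilution; interpretation per NCCLS M100-S14; endpoint = MIC. Stock: 40 mg/ml in DMSO.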

[2] = test system: Streptococcus pneumoniae 1175; conditions: S. pneumoniae 1175 (mefA); microtiter broth dilution
Outline: as §1

[3] = test system: Streptococcus pneumoniae 1095; conditions: S. pneumoniae 1095 (ermB); microtiter broth dilution
Outline: as §1

[4] = test system: Haemophilus influenzae 1218; experiment: MIC, microtiter broth dilution (NCCLS M100-S14), H. influenzae 1218 (susceptible); conditions: H. influenzae 1218 (susceptible)
Outline: as §1

[5] = test system: Streptococcus pneumoniae 1016; experiment: MIC, microtiter broth dilution (NCCLS M100-S14), S. pneumoniae 1016 (susceptible); conditions: S. pneumoniae 1016 (susceptible)
Outline: as §1

Compound	MIC S. pyogenes 1079 [1] [µg/mL]	MIC S. pneumo. 1175 [2] [µg/mL]	MIC S. pneumo. 1095 [3] [µg/mL]	MIC H. influenzae 1218 [4] [µg/mL]	MIC S. pneumo. 1016 [5] [µg/mL]
CCC1OC(=O)C(C)C(=O)C(C)C(OC2OC(C)CC(N(C)C)C2O)C(C)(OC)CC(C)C(=O)C(C)C2N(C3CCN(Cc4cncc5ccccc45)C3)C(=O)OC12C (stereo not shown) [Example 9.10, (isoquinolin-4-yl)methyl]	64 (≈ 77.8 µM)	0.25 (≈ 0.304 µM)	8 (≈ 9.72 µM)	0.5 (≈ 0.608 µM)	<0.06
CCC1OC(=O)C(C)C(=O)C(C)C(OC2OC(C)CC(N(C)C)C2O)C(C)(OC)CC(C)C(=O)C(C)C2N(CC3CCCN3C(=O)c3cc4ccccn4n3)C(=O)OC12C [Example 10.14, 3-descladinosyl-11,12-dideoxy-6-O-methyl-3-oxo-12,11-(oxycarbonyl-((1-(pyrazolo[1,5-a]pyridine-2-carbonyl)-(R)-pyrrolidin-2-yl)-methyl)-imino)-erythromycin A]	32 (≈ 38.1 µM)	0.12 (≈ 0.143 µM)	<0.06	0.25 (≈ 0.298 µM)	<0.06
CCC1OC(=O)C(C)(F)C(=O)C(C)C(OC2OC(C)CC(N(C)C)C2O)C(C)(OC)CC(C)C(=O)C(C)C2N(CC3CCCN3C(=O)c3nc4ccccc4[nH]3)C(=O)OC12C [Example 10.27, 3-descladinosyl-11,12-dideoxy-2-fluoro-6-O-methyl-3-oxo-12,11-(oxycarbonyl-(1-(1H-benzo[d]imidazole-2-carboxyl)-((R)-pyrrolidin-2-yl)-methyl)-imino)-erythromycin A]	8 (≈ 9.32 µM)	0.25 (≈ 0.291 µM)	<0.06	2 (≈ 2.33 µM)	<0.06
CCC1OC(=O)C(C)C(=O)C(C)C(OC2OC(C)CC(N(C)C)C2O)C(C)(OC)CC(C)C(=O)C(C)C2N(CC3CCN(Cc4cccc5nccnc45)C3)C(=O)OC12C [Example 11.02, 3-descladinosyl-11,12-dideoxy-6-O-methyl-3-oxo-12,11-(oxycarbonyl-(1-((quinoxalin-8-yl)-methyl)-((S)-pyrrolidin-3-yl)-methyl)-imino)-erythromycin A]	4 (≈ 4.77 µM)	0.25 (≈ 0.298 µM)	<0.06	0.5 (≈ 0.597 µM)	<0.06
CCC1OC(=O)C(C)C(=O)C(C)C(OC2OC(C)CC(N(C)C)C2O)C(C)(OC)CC(C)C(=O)C(C)C2N(CC3CCN(Cc4c[nH]c5ncccc45)C3)C(=O)OC12C [Example 11.05, 3-descladinosyl-11,12-dideoxy-6-O-methyl-3-oxo-12,11-(oxycarbonyl-(1-((1H-pyrrolo[2,3-b]pyridin-3-yl)-methyl)-((S)-pyrrolidin-3-yl)-methyl)-imino)-erythromycin A]	4 (≈ 4.84 µM)	0.5 (≈ 0.605 µM)	<0.06	0.5 (≈ 0.605 µM)	<0.06
CCC1OC(=O)C(C)C(=O)C(C)C(OC2OC(C)CC(N(C)C)C2O)C(C)(OC)CC(C)C(=O)C(C)C2N(CC3CCN(Cc4ccnc5ccccc45)C3)C(=O)OC12C [Example 11.11, 3-descladinosyl-11,12-dideoxy-6-O-methyl-3-oxo-12,11-(oxycarbonyl-(1-((quinolin-4-yl)-methyl)-((S)-pyrrolidin-3-yl)-methyl)-imino)-erythromycin A]	8 (≈ 9.56 µM)	0.12 (≈ 0.143 µM)	0.12 (≈ 0.143 µM)	1 (≈ 1.19 µM)	<0.06
CCC1OC(=O)C(C)C(=O)C(C)C(OC2OC(C)CC(N(C)C)C2O)C(C)(OC)CC(C)C(=O)C(C)C2N(CC3CCCN3C(=O)c3cccc4ncccc34)C(=O)OC12C [Example 12.11, 3-descladinosyl-11,12-dideoxy-6-O-methyl-3-oxo-12,11-(oxycarbonyl-((1-(quinoline-5-carbonyl)-(S)pyrrolidin-2-yl)-methyl)-imino)-erythromycin A]	>64.00	1 (≈ 1.18 µM)	0.5 (≈ 0.588 µM)	8 (≈ 9.4 µM)	<0.06
CCC1OC(=O)C(C)C(=O)C(C)C(OC2OC(C)CC(N(C)C)C2O)C(C)(OC)CC(C)C(=O)C(C)C2N(CC3(O)CCN(Cc4c[nH]c5ncccc45)CC3)C(=O)OC12C (stereo not shown) [Example 14.01, (1H-pyrrolo[2,3-b]pyridin-3-yl)methyl]	>64.00	1 (≈ 1.17 µM)	32 (≈ 37.4 µM)	4 (≈ 4.67 µM)	<0.06
